Patent US11246817B2, “Antimicrobial composition” (Conopco, Inc., priority 2016, dated 2022)
Like-named read-outs stand apart in the source and are kept apart here.

Tested on: M. furfur (CBS 1878)
Experiment: ΣFIC assay against Malassezia furfur (in-vitro susceptibility testing, alamar blue)
Type: cell-based
Details: for MIC: Malassezia furfur; for interaction with zinc pyrithione (synergy) in words: binary combination with zinc pyrithione, judged from ΣFIC; for ΣFIC: in combination with zinc pyrithione 0 to 12.5 ppm, climbazole 0 to 500 ppm, selenium sulfide 0 to 100 ppm
Experimental: A brief description of the method is given below.
Methods: ΣFIC assay against Malassezia furfur
They are then incubated at 32° C. for 48 hrs with shaking. Then, 1 ml of the first broth culture is transferred into 9 ml of fresh PB and incubated at 32° C. for 48 hrs with shaking. The final culture should contain 2 to 6×10^6 cells/ml. This is achieved by diluting using PB to 5*10^5 cell/ml.
The alcoholic compound was serially diluted (2-fold) to prepare in a range of 10-10,000 ppm in growth medium.
Binary combinations of ZPTO and the testing compound were prepared in 96-well plate by mixing 20 μl of zinc pyrithione solution with 20 μl of testing compound. The solution in each well were further mixed with 160 μl of PB and 20 μl of M. furfur. The final cell density in the testing plate is around 5*10^4 cell/ml, and the final concentration of actives in each well of the 96-wel plate were shown below.
The plate was incubated at 32° C. for one day. Then 20 μl of alamar blue (0.01%) was added into each well with a further incubation for one day to observe the color change. Red color indicates microbial growth and the non-changing blue color indicates no growth.
The MIC is defined as the absolute lowest concentration of active that provides complete microbial growth inhibition as indicated by the blue color of alamar blue under the tested condition.
The differing behaviours of inhibitory antimicrobials in isolation and mixtures have been widely explored using the concept of the Fractional Concentration (FC) and Fractional
Inhibitory Concentration (FIC). The parameter can be defined as follows: […]
The interactions between antimicrobials can be additive, synergistic or antagonistic depending on whether the efficacy of the combination is equivalent to, greater than or less than that obtained for the same total concentration of the individual components when tested alone.
These relationships can be expressed mathematically by summing the fractional MIC values for all the components present in the mixture to give the “fractional inhibition index”. There is no consistent approach in the academic or patent literature in defining precise limiting ΣFIC values that differentiate synergy from additivity or antagonism. In this study, we have adopted a liberal approach defining any binary mixture with ΣFIC <0.9 as showing evidence of synergistic behavior.
ΣFIC=FIC (component 1)+FIC (component 2)
ΣFIC=1 corresponds to additive bactericidal activity
ΣFIC>1 corresponds to antagonistic bactericidal activity
ΣFIC<0.9 corresponds to synergistic bactericidal activity
Climbazole was varied over a concentration of 0 to 500 ppm and selenium sulfide over a concentration of 0 to 100 ppm.

[1] = CBS1878, read-out: Minimum Inhibition Concentration (MIC)

Structure (SMILES) | MIC [1] [µg/mL] | MIC (CBS1878, active alone, lowest concentration giving complete growth inhibition (alamar blue stays blue), 32° C., Pityrosporum Broth, read-out: Minimum Inhibition Concentration (MIC)) [µg/mL] | interaction with zinc pyrithione (synergy) in words | ΣFIC | Minimum Inhibition Concentration (MIC) (active alone, lowest concentration giving complete growth inhibition (alamar blue stays blue), 32° C., Pityrosporum Broth) [ppm]
C=CCc1ccc(O)c(-c2cc(CC=C)ccc2O)c1 [magnalol] | 500 | – | – | – | –
C=CCc1ccc(O)c(-c2ccc(O)c(CC=C)c2)c1 [honokiol] | 1000 | – | – | – | –
CC(C)(C)C(=O)C(Oc1ccc(Cl)cc1)n1ccnc1 (stereo not drawn) [climbazole] | – | 3.9 | not synergistic | 2 | –
S=[Se]=S [selenium sulfide] | – | – | not synergistic | 2 | 50
COc1ccc(C(C)=O)c(O)c1 [paeonol] | 500 | – | – | – | –
